Measured values as given in ChEMBL document CHEMBL1201862, “PubChem BioAssay data set” (2004).
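Five compound concentrations were applied to cells in 96-well plates for 48 hours; endpoints were derived by simple linear interpolation of the resulting dose-response curve. GI50: concentration for 50% inhibition of growth.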 Active and inactive are the calls of the source. Rule as the data show it: active = GI50 up to about 1.1 µM and inactive = higher.

Experiments:
Assay in all cases: NCI tumour cell line growth inhibition, 48 h
786-0 = system: 786-0
A498 = system: A498
A549 = system: A549
ACHN = system: ACHN
BT-549 = system: BT-549
CAKI-1 = system: CAKI-1
CCRF-CEM = system: CCRF-CEM
COLO 205 = system: COLO 205
DU-145 = system: DU-145
EKVX = system: EKVX
HCC 2998 = system: HCC 2998
HCT-15 = system: HCT-15
HL-60 = system: HL-60
HOP-62 = system: HOP-62
HOP-92 = system: HOP-92
HT-29 = system: HT-29
Hs-578T = system: Hs-578T
IGROV-1 = system: IGROV-1
K562 = system: K562
KM12 = system: KM12
LOX IMVI = system: LOX IMVI
M14 = system: M14
MCF7 = system: MCF7
MDA-MB-231 = system: MDA-MB-231
MDA-MB-435 = system: MDA-MB-435
MDA-N = system: MDA-N
MOLT-4 = system: MOLT-4
Malme-3M = system: Malme-3M
NCI-H226 = system: NCI-H226
NCI-H23 = system: NCI-H23
NCI-H522 = system: NCI-H522
NCI/ADR-RES = system: NCI/ADR-RES
OVCAR-3 = system: OVCAR-3
OVCAR-4 = system: OVCAR-4
OVCAR-5 = system: OVCAR-5
OVCAR-8 = system: OVCAR-8
PC-3 = system: PC-3
RPMI-8226 = system: RPMI-8226
RXF 393 = system: RXF 393
SF-268 = system: SF-268
SF-295 = system: SF-295
SF-539 = system: SF-539
SK-MEL-28 = system: SK-MEL-28
SK-MEL-2 = system: SK-MEL-2
SK-MEL-5 = system: SK-MEL-5
SK-OV-3 = system: SK-OV-3
SN12C = system: SN12C
SNB-19 = system: SNB-19
SNB-75 = system: SNB-75
SR = system: SR
SW-620 = system: SW-620
T47D = system: T47D
TK-10 = system: TK-10
U-251 = system: U-251
UACC-257 = system: UACC-257
UO-31 = system: UO-31
HCT-116 = system: HCT-116
NCI-H460 = system: NCI-H460
UACC-62 = system: UACC-62

Q: What does the source list for `COC1(CC[C@@H](C)COC2OC(CO)C(O)C(O)C2O)O[C@H]2C[C@H]3[C@@H]4CC=C5C[C@@H](OC6OC(CO)C(OC7OC(C)C(O)C(O)C7O)C(O)C6OC6OC(C)C(O)C(O)C6O)CC[C@]5(C)[C@H]4CC[C@]3(C)[C@H]2[C@@H]1C` (some centres undefined)?
A: GI50 (786-0): 2.02 µM (inactive); GI50 (A498): 10.2 µM (inactive); GI50 (A549): 2 µM (inactive); GI50 (ACHN): 11.4 µM (inactive); GI50 (BT-549): 3.52 µM (inactive); GI50 (CAKI-1): 1.53 µM (inactive); GI50 (CCRF-CEM): 17.9 µM (inactive); GI50 (COLO 205): 5.15 µM (inactive); GI50 (DU-145): 2.28 µM (inactive); GI50 (EKVX): 22.1 µM (inactive); GI50 (HCC 2998): 3.74 µM (inactive); GI50 (HCT-15): 1.98 µM; GI50 (HL-60): 18.2 µM (inactive); GI50 (HOP-62): 2.56 µM (inactive); GI50 (HOP-92): 3.25 µM (inactive); GI50 (HT-29): 2.68 µM (inactive); GI50 (Hs-578T): 2.55 µM (inactive); GI50 (IGROV-1): 4.59 µM (inactive); GI50 (K562): 18.2 µM (inactive); GI50 (KM12): 2.1 µM (inactive); GI50 (LOX IMVI): 1.73 µM (inactive); GI50 (M14): 2.55 µM (inactive); GI50 (MCF7): 6.28 µM (inactive); GI50 (MDA-MB-231): 1.6 µM (inactive); GI50 (MDA-MB-435): 2.02 µM (inactive); GI50 (MDA-N): 2.61 µM (inactive); GI50 (MOLT-4): 21.7 µM (inactive); GI50 (Malme-3M): 3.01 µM (inactive); GI50 (NCI-H226): 9.18 µM (inactive); GI50 (NCI-H23): 3.97 µM (inactive); GI50 (NCI-H522): 2.08 µM (inactive); GI50 (NCI/ADR-RES): 3.18 µM (inactive); GI50 (OVCAR-3): 2.36 µM (inactive); GI50 (OVCAR-4): 3.54 µM (inactive); GI50 (OVCAR-5): 4.41 µM (inactive); GI50 (OVCAR-8): 3.53 µM (inactive); GI50 (PC-3): 3.13 µM (inactive); GI50 (RPMI-8226): 6.62 µM (inactive); GI50 (RXF 393): 3.41 µM (inactive); GI50 (SF-268): 3.18 µM (inactive); GI50 (SF-295): 2.82 µM (inactive); GI50 (SF-539): 1.89 µM (inactive); GI50 (SK-MEL-28): 2.97 µM (inactive); GI50 (SK-MEL-2): 4.39 µM (inactive); GI50 (SK-MEL-5): 6.12 µM (inactive); GI50 (SK-OV-3): 1.66 µM (inactive); GI50 (SN12C): 5.85 µM (inactive); GI50 (SNB-19): 3.17 µM (inactive); GI50 (SNB-75): 2.06 µM (inactive); GI50 (SR): 25.1 µM (inactive); GI50 (SW-620): 1.14 µM (inactive); GI50 (T47D): 6.08 µM (inactive); GI50 (TK-10): 17.2 µM (inactive); GI50 (U-251): 1.81 µM (inactive); GI50 (UACC-257): 3.51 µM (inactive); GI50 (UO-31): 2.92 µM (inactive)

Q: What does the source list for `CCOC(=O)c1cc(-n2nnc3ccccc32)cn1C`?
A: GI50 (786-0): > 10 µM (inactive); GI50 (A498): > 10 µM (inactive); GI50 (A549): > 10 µM (inactive); GI50 (ACHN): > 10 µM (inactive); GI50 (BT-549): > 10 µM (inactive); GI50 (CAKI-1): > 10 µM (inactive); GI50 (CCRF-CEM): > 10 µM (inactive); GI50 (COLO 205): > 10 µM (inactive); GI50 (DU-145): > 10 µM (inactive); GI50 (EKVX): > 10 µM (inactive); GI50 (HCC 2998): > 10 µM (inactive); GI50 (HCT-116): > 10 µM (inactive); GI50 (HCT-15): > 10 µM; GI50 (HL-60): > 10 µM (inactive); GI50 (HOP-62): > 10 µM (inactive); GI50 (HOP-92): > 10 µM (inactive); GI50 (HT-29): > 10 µM (inactive); GI50 (Hs-578T): > 10 µM (inactive); GI50 (IGROV-1): > 10 µM (inactive); GI50 (K562): > 10 µM (inactive); GI50 (KM12): > 10 µM (inactive); GI50 (LOX IMVI): > 10 µM (inactive); GI50 (M14): > 10 µM (inactive); GI50 (MCF7): > 10 µM (inactive); GI50 (MDA-MB-231): > 10 µM (inactive); GI50 (MDA-MB-435): > 10 µM (inactive); GI50 (MDA-N): > 10 µM (inactive); GI50 (MOLT-4): > 10 µM (inactive); GI50 (Malme-3M): > 10 µM (inactive); GI50 (NCI-H226): > 10 µM (inactive); GI50 (NCI-H23): > 10 µM (inactive); GI50 (NCI-H460): > 10 µM (inactive); GI50 (NCI-H522): > 10 µM (inactive); GI50 (NCI/ADR-RES): > 10 µM (inactive); GI50 (OVCAR-3): > 10 µM (inactive); GI50 (OVCAR-4): > 10 µM (inactive); GI50 (OVCAR-5): > 10 µM (inactive); GI50 (OVCAR-8): > 10 µM (inactive); GI50 (PC-3): > 10 µM (inactive); GI50 (RPMI-8226): > 10 µM (inactive); GI50 (RXF 393): > 10 µM (inactive); GI50 (SF-268): > 10 µM (inactive); GI50 (SF-295): > 10 µM (inactive); GI50 (SF-539): > 10 µM (inactive); GI50 (SK-MEL-28): > 10 µM (inactive); GI50 (SK-MEL-2): > 10 µM (inactive); GI50 (SK-MEL-5): > 10 µM (inactive); GI50 (SK-OV-3): > 10 µM (inactive); GI50 (SN12C): > 10 µM (inactive); GI50 (SNB-19): > 10 µM (inactive); GI50 (SNB-75): 8.59 µM (inactive); GI50 (SR): 1.32 µM (inactive); GI50 (T47D): > 10 µM (inactive); GI50 (TK-10): > 10 µM (inactive); GI50 (U-251): > 10 µM (inactive); GI50 (UACC-257): > 10 µM (inactive); GI50 (UACC-62): > 10 µM (inactive); GI50 (UO-31): > 10 µM (inactive)
